Where two headings read alike, the source gives them in different places.
Columns and labels:
[1] = target: T1, bovine vesicular acetylcholine transporter (VAChT) (Bos taurus, UniProt E1BK36); experiment: Radioligand Binding Assay; settings: Bovine binding Ki, CHO-K1 membranes with recombinant bovine VAChT, [3H]Compound X6 0.3 nM
T1 sequence (E1BK36 1-524): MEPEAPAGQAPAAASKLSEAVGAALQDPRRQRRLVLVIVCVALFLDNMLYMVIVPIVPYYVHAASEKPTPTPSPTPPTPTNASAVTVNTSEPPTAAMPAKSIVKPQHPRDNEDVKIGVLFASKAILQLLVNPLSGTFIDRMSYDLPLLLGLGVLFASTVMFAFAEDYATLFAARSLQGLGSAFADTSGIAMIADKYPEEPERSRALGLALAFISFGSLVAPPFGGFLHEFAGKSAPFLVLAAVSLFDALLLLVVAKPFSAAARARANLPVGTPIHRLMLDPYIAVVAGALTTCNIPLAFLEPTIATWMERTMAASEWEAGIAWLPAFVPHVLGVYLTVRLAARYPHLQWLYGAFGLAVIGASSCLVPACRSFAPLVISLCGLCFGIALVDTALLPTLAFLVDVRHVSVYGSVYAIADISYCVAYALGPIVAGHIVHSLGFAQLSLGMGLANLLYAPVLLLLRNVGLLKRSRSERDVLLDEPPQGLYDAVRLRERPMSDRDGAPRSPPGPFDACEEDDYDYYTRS
Description: To measure binding affinity, CHO-K1 cells recombinantly expressing the bovine VAChT was generated as a stable cell line and subsequently used to produce membrane preparations.
Radioligand binding assays were conducted in disposable polypropylene 96-well plates. VAChT competition assays were initiated by the addition of bovine recombinant membrane homogenate (50 μg/well) in assay buffer (50 mM Tris-HCl, 120 mM NaCl, 5 mM KCl, 1 mM MgCl, and 2 mM CaCl, pH 7.4) containing [^3H]Compound X6 (0.3 nM) with or without competing ligand. The assay was allowed to equilibrate for 120 minutes at room temperature, before being filtered onto GF/C unifilter plates pre-coated in 0.3% polyethylenimine (Perkin Elmer Life and Analytical Sciences, Boston, Mass.) with a Filtermate 96 harvester (PerkinElmer Life and Analytical Sciences). Filters were washed in ice-cold 50 mM Tris-HCl, pH 7.4 buffer and then counted for radioactivity in a TopCount microplate scintillation counter after addition of 50 μL Microscint 20 (PerkinElmer). Non-specific binding was measured in the presence of 10 μM Compound X6. Apparent dissociation constants (Ki values) from the competition experiments were calculated using an iterative nonlinear regression curve-fitting program (GraphPAD Prism 6.0 Software, San Diego, Calif.) and are reported in Table 2.

[2] = tested on: Dirofilaria immitis microfilariae; experiment: Dirofilaria immitis, Microfilariae (DiMF) In Vitro Assay; settings: Dirofilaria immitis
Haemonchus contortus L3 = experiment: Haemonchus contortus, Larvae Stage 3 (HcL3) In Vitro Assay; settings: Haemonchus contortus
[3] = 72 h, read-out: Di MF, MEC, decrease in microfilariae motility by visual assessment, curve starting at 100 μM
[4] = 96 h, read-out: HcL3 MEC, Minimal Effective Concentration whereby worm motility is inhibited by approximately 70%, 37° C., tested 0.001-100 μM
[5] = 96 hours, 37° C., read-out: HcL3 MEC

Row | Structure (SMILES) | Ki [1] [nM] | minimal effective concentration [2, 3] [µM] | minimal effective concentration (Haemonchus contortus L3; [4]) [µM] | minimal effective concentration ([2]; 72 hours, read-out: Di MF) [µM] | minimal effective concentration (Haemonchus contortus L3; [5]) [µM]
1 | O=C(NCc1ccnc(Cl)c1)N1CC2(CCN(C/C=C/c3ccc(C(F)(F)F)cc3)CC2)c2cc(Cl)c(F)cc21 [Example 128, (E)-5-chloro-N-((2-chloropyridin-4-yl)methyl)-6-fluoro-1′-(3-(4-(trifluoromethyl)phenyl)allyl)spiro[indoline-3,4′-piperidine]-1-carboxamide] | 44 | 3.3 | 1 | – | –
2 | COc1ccc2ccc(CN3CCC4(CC3)CN(C(=O)NCc3ccnc(Cl)c3)c3ccc(C#N)cc34)c(C)c2n1 [Example 118, N-[(2-chloro-4-pyridyl)methyl]-5-cyano-1′-[(2-methoxy-8-methyl-7-quinolyl)methyl]spiro[indoline-3,4′-piperidine]-1-carboxamide] | 28.4 | 57.4 | 3.3 | – | –
3 | O=C(NCc1ccnc(F)c1)N1CC2(CCN(C/C=C/c3ccc(Cl)cc3)CC2)c2cc(-n3ccccc3=O)ccc21 [Example 75, (E)-1′-(3-(4-chlorophenyl)allyl)-N-((2-fluoropyridin-4-yl)methyl)-5-(2-oxopyridin-1(2H)-yl)spiro[indoline-3,4′-piperidine]-1-carboxamide] | 11600 | 4.4 | 100 | – | –
4 | O=C(NCc1ccnc(Cl)c1)N1CC2(CCN(C/C=C/c3ccc(F)cc3)CC2)c2c1ccc(Cl)c2Cl [Example 143, (E)-4,5-dichloro-N-((2-chloropyridin-4-yl)methyl)-1′-(3-(4-fluorophenyl)allyl)spiro[indoline-3,4′-piperidine]-1-carboxamide] | 114 | – | – | 5.7 | 3.3
5 | O=C(NCc1cnc(Cl)s1)N1CC2(CCN(C/C=C/c3ccc(Cl)c(Cl)c3)CC2)c2c1ccc1scnc21 [Example 21, (E)-N-((2-chlorothiazol-5-yl)methyl)-1-(3-(3,4-dichlorophenyl)allyl)spiro[piperidine-4,8′-thiazolo[4,5-e]indole]-6′(7′H)-carboxamide] | 105 | – | – | 10 | 69.1
6 | O=C(NCc1ccnc(F)c1)N1CC2(CCN(C/C=C/c3ccc(C(F)(F)F)cc3)CC2)c2cc(Br)ccc21 [Example 107, 5-bromo-N-[(2-fluoro-4-pyridyl)methyl]-1′-[(E)-3-[4-(trifluoromethyl)phenyl]allyl]spiro[indoline-3,4′-piperidine]-1-carboxamide] | 486 | 3.3 | 3.3 | – | –
7 | N#Cc1ccc(-c2ccc3c(c2)C2(CCN(C/C=C/c4ccc(C(F)(F)F)cc4)CC2)CN3C(=O)NCc2ccnc(Cl)c2)cn1 [Example 120, N-[(2-chloro-4-pyridyl)methyl]-5-(6-cyano-3-pyridyl)-1′-[(E)-3-[4-(trifluoromethyl)phenyl]allyl]spiro[indoline-3,4′-piperidine]-1-carboxamide] | 13900 | 1.2 | 100 | – | –
8 | COc1nccc2c1C1(CCN(C/C=C/c3ccc(Cl)c(Cl)c3)CC1)CN2C(=O)NCc1ccnc(Cl)c1 [Example 68, (E)-N-((2-chloropyridin-4-yl)methyl)-1-(3-(3,4-dichlorophenyl)allyl)-4′-methoxyspiro[piperidine-4,3′-pyrrolo[3,2-c]pyridine]-1′(2′H)-carboxamide] | 815 | 1.3 | 33 | – | –
9 | O=C(NCc1ccnc(Cl)c1)N1CC2(CCN(C/C=C/c3ccc(Cl)cc3)CC2)c2c(Br)cccc21 [Example 156, (E)-4-bromo-1′-(3-(4-chlorophenyl)allyl)-N-((2-chloropyridin-4-yl)methyl)spiro[indoline-3,4′-piperidine]-1-carboxamide] | 71.5 | 5.7 | 7.8 | – | –
10 | N#Cc1ccc(/C=C/CN2CCC3(CC2)CN(C(=O)NCc2ccnc(Cl)c2)c2cc(C(F)(F)F)c(Cl)cc23)cc1 [Example 72, (E)-5-chloro-N-((2-chloropyridin-4-yl)methyl)-1′-(3-(4-cyanophenyl)allyl)-6-(trifluoromethyl)spiro[indoline-3,4′-piperidine]-1-carboxamide] | 27 | 3.3 | 10 | – | –
11 | O=C(NCc1ccccc1)N1CC2(CCN(C/C=C/c3ccc(Cl)c(Cl)c3)CC2)c2c1ccc1scnc21 [Example 15, (E)-N-benzyl-1-(3-(3,4-dichlorophenyl)allyl)spiro[piperidine-4,8′-thiazolo[4,5-e]indole]-6′(7′H)-carboxamide] | 610 | 4.4 | 100 | – | –
12 | O=C(NCc1ccnc(Cl)c1)N1CC2(CCN(C/C=C/c3ccc(Cl)c(Cl)c3)CC2)c2c1ccc(F)c2Cl [Example 146, (E)-4-chloro-N-((2-chloropyridin-4-yl)methyl)-1′-(3-(3,4-dichlorophenyl)allyl)-5-fluorospiro[indoline-3,4′-piperidine]-1-carboxamide] | 21.7 | 5.7 | 3.3 | – | –
13 | O=C(NCc1ccnc(F)c1)N1CC2(CCN(C/C=C/c3ccc(Cl)cc3)CC2)c2c(F)cc(C(F)(F)F)cc21 [Example 90, (E)-1′-(3-(4-chlorophenyl)allyl)-4-fluoro-N-((2-fluoropyridin-4-yl)methyl)-6-(trifluoromethyl)spiro[indoline-3,4′-piperidine]-1-carboxamide] | 256 | 10 | 1.8 | – | –
14 | O=C(NCc1ccnc(F)c1)N1CC2(CCN(C/C=C/c3ccc(Cl)c(Cl)c3)CC2)c2cc(-c3cn[nH]c3)ccc21 [Example 111, 1′-[(E)-3-(3,4-dichlorophenyl)allyl]-N-[(2-fluoro-4-pyridyl)methyl]-5-(1H-pyrazol-4-yl)spiro[indoline-3,4′-piperidine]-1-carboxamide] | 3380 | 10 | 100 | – | –
15 | O=C(NCc1ccnc(Cl)c1)N1CC2(CCN(C/C=C/c3ccc(Cl)cc3)CC2)c2c1ccc(F)c2Cl [Example 140, (E)-4-chloro-1′-(3-(4-chlorophenyl)allyl)-N-((2-chloropyridin-4-yl)methyl)-5-fluorospiro[indoline-3,4′-piperidine]-1-carboxamide] | 95.2 | – | – | 5.7 | 3.3
16 | N#Cc1cccc2c1C1(CCN(C/C=C/c3ccc(Cl)cc3)CC1)CN2C(=O)NCc1ccnc(Cl)c1 [Example 165, (E)-1′-(3-(4-chlorophenyl)allyl)-N-((2-chloropyridin-4-yl)methyl)-4-cyanospiro[indoline-3,4′-piperidine]-1-carboxamide] | 38.4 | 8.3 | 16.7 | – | –
17 | O=C(NCc1ccnc(Cl)c1)N1CC2(CCN(C/C=C/c3ccc(Cl)cc3)CC2)c2cc(SC(F)(F)F)ccc21 [Example 80, (E)-1′-(3-(4-chlorophenyl)allyl)-N-((2-chloropyridin-4-yl)methyl)-5-(trifluoromethylthio)spiro[indoline-3,4′-piperidine]-1-carboxamide] | 191 | 10 | 100 | – | –
18 | O=C(NCc1ccnc(Cl)c1)N1CC2(CCN(C/C=C/c3ccc(Cl)cc3)CC2)c2cc3c(cc21)OCO3 [Example 6, (E)-1-(3-(4-chlorophenyl)allyl)-N-((2-chloropyridin-4-yl)methyl)spiro[piperidine-4,7′-[1,3]dioxolo[4,5-f]indole]-5′(6′H)-carboxamide] | 35.4 | – | – | 10 | 3.3
19 | O=C(NCc1ccnc(Cl)c1)N1CC2(CCN(C/C=C/c3ccc(C(F)(F)F)cc3)CC2)c2cc(F)c(Cl)cc21 [Example 145, (E)-6-chloro-N-((2-chloropyridin-4-yl)methyl)-5-fluoro-1′-(3-(4-(trifluoromethyl)phenyl)allyl)spiro[indoline-3,4′-piperidine]-1-carboxamide] | 47.4 | 5.7 | 3.3 | – | –
20 | O=C(NCc1ccnc(Cl)c1)N1CC2(CCN(C/C=C/c3ccc(C(F)(F)F)cc3)CC2)c2cc(C(F)(F)F)ccc21 [Example 170, (E)-N-((2-chloropyridin-4-yl)methyl)-5-(trifluoromethyl)-1′-(3-(4-(trifluoromethyl)phenyl)allyl)spiro[indoline-3,4′-piperidine]-1-carboxamide] | 716 | 5.7 | 57.4 | – | –
21 | N#Cc1c(F)ccc2c1C1(CCN(C/C=C/c3ccc(Cl)cc3)CC1)CN2C(=O)NCc1ccnc(Cl)c1 [Example 166, (E)-1′-(3-(4-chlorophenyl)allyl)-N-((2-chloropyridin-4-yl)methyl)-4-cyano-5-fluorospiro[indoline-3,4′-piperidine]-1-carboxamide] | 43.5 | 1.5 | 23.5 | – | –
